Laboratory results taken from patent US6723753B2, “Substituted n-benzyl-n-phenyl aminoalcohol compounds useful for inhibiting cholesteryl ester transfer protein activity” (Pharmacia Corporation, priority 2002, dated 2004).
pIC50: −log10 of the molar value.

Molecular target: T1, CETP (Homo sapiens, UniProt P11597)
T1 sequence (P11597 18-493): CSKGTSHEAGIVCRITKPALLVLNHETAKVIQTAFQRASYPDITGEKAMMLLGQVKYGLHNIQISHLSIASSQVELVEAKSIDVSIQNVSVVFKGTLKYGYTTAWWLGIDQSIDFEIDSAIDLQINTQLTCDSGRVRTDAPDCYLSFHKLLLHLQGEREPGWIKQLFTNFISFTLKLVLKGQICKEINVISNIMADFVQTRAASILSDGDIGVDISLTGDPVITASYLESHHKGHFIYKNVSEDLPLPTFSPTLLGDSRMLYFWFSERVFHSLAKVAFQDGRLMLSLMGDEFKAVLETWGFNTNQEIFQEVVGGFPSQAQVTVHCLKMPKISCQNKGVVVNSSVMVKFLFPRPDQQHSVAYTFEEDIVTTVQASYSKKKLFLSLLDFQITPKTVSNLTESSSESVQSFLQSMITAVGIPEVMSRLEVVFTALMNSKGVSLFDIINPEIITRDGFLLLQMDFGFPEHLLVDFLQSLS
Assay: Assay of CETP Inhibition using Purified Components (Reconstituted Buffer Assay)
Type: biochemical
Design: made in house; host or cells: CHO cells (serum-free conditioned medium)
Conditions: Inhibition of CETP activity in reconstituted buffer assay; transfer of [3H]CE from HDL to LDL; read-out: IC50
Outline: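 Purified human recombinant CETP from transfected CHO cells was incubated with [^3H]CE-labeled HDL donor and LDL acceptor in Tris pH 7.4/NaCl/EDTA/1% BSA buffer for 2 h at 37 °C. LDL was then precipitated with dextran sulfate/MgCl2, filtered, and counted by liquid scintillation to give IC50 for CE transfer.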

SMILES | pIC50
O=C(NCc1ccccc1)c1cccc(N(Cc2cccc(OC(F)(F)C(F)F)c2)CC(O)C(F)(F)F)c1 (stereo not drawn) [Example 465] | < 4.30
O=C(NCc1cccc(OC(F)(F)F)c1)c1cccc(N(Cc2cccc(OC(F)(F)C(F)F)c2)CC(O)C(F)(F)F)c1 (stereo not drawn) [Example 466] | 4.92
O=C(NCc1ccc(F)cc1)c1cccc(N(Cc2cccc(OC(F)(F)C(F)F)c2)CC(O)C(F)(F)F)c1 (stereo not drawn) [Example 467] | < 4.30
CN(C(=O)c1cccc(N(Cc2cccc(OC(F)(F)C(F)F)c2)CC(O)C(F)(F)F)c1)c1ccccc1 (stereo not drawn) [Example 468] | 4.46
CN(Cc1ccccc1)C(=O)c1cccc(N(Cc2cccc(OC(F)(F)C(F)F)c2)CC(O)C(F)(F)F)c1 (stereo not drawn) [Example 469] | < 4.30
CN1CCN(C(=O)c2cccc(N(Cc3cccc(OC(F)(F)C(F)F)c3)CC(O)C(F)(F)F)c2)CC1 (stereo not drawn) [Example 470] | < 4.30
O=C(c1cccc(N(Cc2cccc(OC(F)(F)C(F)F)c2)CC(O)C(F)(F)F)c1)N1CCCC1 (stereo not drawn) [Example 472] | 4.96
OC(CN(Cc1cccc(OC(F)(F)C(F)F)c1)c1cccc(Sc2ccncc2)c1)C(F)(F)F (stereo not drawn) [Example 474] | 5.22
OC(CN(Cc1cccc(OC(F)(F)C(F)F)c1)c1cccc(SC2CCNCC2)c1)C(F)(F)F (stereo not drawn) [Example 476] | < 4.30
OC(CN(Cc1cccc(OC(F)(F)C(F)F)c1)c1cccc(SCc2ccccn2)c1)C(F)(F)F (stereo not drawn) [Example 477] | 4.96
CS(=O)(=O)c1ccc(Sc2cccc(N(Cc3cccc(OC(F)(F)C(F)F)c3)CC(O)C(F)(F)F)c2)cc1 (stereo not drawn) [Example 479] | < 4.30
CC(C)S(=O)(=O)c1cccc(N(Cc2cccc(OC(F)(F)C(F)F)c2)CC(O)C(F)(F)F)c1 (stereo not drawn) [Example 482, 3-[[3-[(1-methylethyl)sulfonyl]phenyl][[3-(1,1,2,2-tetrafluoroethoxy)-phenyl]methyl]amino]-1,1,1-trifluoro-2-propanol] | 5.32
O=[N+]([O-])c1ccc(S(=O)(=O)c2cccc(N(Cc3cccc(OC(F)(F)C(F)F)c3)CC(O)C(F)(F)F)c2)cc1 (stereo not drawn) [Example 483] | 5.66
O=S(=O)(c1cccc(N(Cc2cccc(OC(F)(F)C(F)F)c2)CC(O)C(F)(F)F)c1)C1CCNCC1 (stereo not drawn) [Example 484] | < 4.30
CC(=O)c1ccc(S(=O)(=O)c2cccc(N(Cc3cccc(OC(F)(F)C(F)F)c3)CC(O)C(F)(F)F)c2)cc1 (stereo not drawn) [Example 486] | 5.00
CS(=O)(=O)c1ccc(S(=O)(=O)c2cccc(N(Cc3cccc(OC(F)(F)C(F)F)c3)CC(O)C(F)(F)F)c2)cc1 (stereo not drawn) [Example 487] | < 4.30
COC(=O)COc1cccc(N(Cc2cccc(OC(F)(F)C(F)F)c2)CC(O)C(F)(F)F)c1 (stereo not drawn) [Example 490] | 5.66
N#CCOc1cccc(N(Cc2cccc(OC(F)(F)C(F)F)c2)CC(O)C(F)(F)F)c1 (stereo not drawn) [Example 491] | 5.36
O=S(=O)(CCOc1cccc(N(Cc2cccc(OC(F)(F)C(F)F)c2)CC(O)C(F)(F)F)c1)c1ccccc1 (stereo not drawn) [Example 497] | 4.38

SMILES | pIC50
NC(=O)COc1cccc(N(Cc2cccc(OC(F)(F)C(F)F)c2)CC(O)C(F)(F)F)c1 (stereo not drawn) [Example 500] | < 4.30
N#CCCCOc1cccc(N(Cc2cccc(OC(F)(F)C(F)F)c2)CC(O)C(F)(F)F)c1 (stereo not drawn) [Example 501] | 5.44
CC(Oc1cccc(N(Cc2cccc(OC(F)(F)C(F)F)c2)CC(O)C(F)(F)F)c1)C(=O)Nc1ccccc1 (stereo not drawn) [Example 502] | 5.24
OC(CN(Cc1cccc(OC(F)(F)C(F)F)c1)c1cccc(OC2CCOCC2)c1)C(F)(F)F (stereo not drawn) [Example 507] | 5.64
CN(C)CCOc1cccc(N(Cc2cccc(OC(F)(F)C(F)F)c2)CC(O)C(F)(F)F)c1 (stereo not drawn) [Example 511] | < 4.30
CC(C)(CO)COc1cccc(N(Cc2cccc(OC(F)(F)C(F)F)c2)CC(O)C(F)(F)F)c1 (stereo not drawn) [Example 512] | 5.21
COCc1cccc(N(Cc2cccc(OC(F)(F)C(F)F)c2)CC(O)C(F)(F)F)c1 (stereo not drawn) [Example 514C, 3-[[3(methoxymethyl)phenyl][[3-(1,1,2,2-tetrafluoroethoxy)-phenyl]methyl]amino]-1,1,1-trifluoro-2-propanol] | 5.18
O=[N+]([O-])c1cccc(Cc2cccc(N(Cc3cccc(OC(F)(F)C(F)F)c3)CC(O)C(F)(F)F)c2)c1 (stereo not drawn) [Example 516] | 5.52
OC(CN(Cc1cccc(OC(F)(F)C(F)F)c1)c1cccc(Cc2ccc(F)cc2)c1)C(F)(F)F (stereo not drawn) [Example 519] | 5.60
CC(C)(C)c1ccc(Cc2cccc(N(Cc3cccc(OC(F)(F)C(F)F)c3)CC(O)C(F)(F)F)c2)cc1 (stereo not drawn) [Example 520] | 4.52
O=S(=O)(Nc1cccc(N(Cc2cccc(OC(F)(F)C(F)F)c2)CC(O)C(F)(F)F)c1)c1ccc(F)cc1 (stereo not drawn) [Example 528, 4-fluoro-N-[3-[[[3-(1,1,2,2-tetrafluoroethoxy)phenyl]methyl](3,3,3-trifluoro-2-hydroxypropyl)amino]phenyl]benzenesulfonamide] | 4.37
O=S(=O)(Nc1cccc(N(Cc2cccc(OC(F)(F)C(F)F)c2)CC(O)C(F)(F)F)c1)c1ccccc1 (stereo not drawn) [Example 529] | 4.31
Cc1cccc(S(=O)(=O)Nc2cccc(N(Cc3cccc(OC(F)(F)C(F)F)c3)CC(O)C(F)(F)F)c2)c1 (stereo not drawn) [Example 530] | < 4.30
O=S(=O)(Nc1cccc(N(Cc2cccc(OC(F)(F)C(F)F)c2)CC(O)C(F)(F)F)c1)c1cccc(C(F)(F)F)c1 (stereo not drawn) [Example 531] | < 4.30
O=[N+]([O-])c1cccc(S(=O)(=O)Nc2cccc(N(Cc3cccc(OC(F)(F)C(F)F)c3)CC(O)C(F)(F)F)c2)c1 (stereo not drawn) [Example 532] | < 4.30
O=S(=O)(Nc1cccc(N(Cc2cccc(OC(F)(F)C(F)F)c2)CC(O)C(F)(F)F)c1)c1ccc(F)c(Cl)c1 (stereo not drawn) [Example 533] | < 4.30
CC(C)S(=O)(=O)Nc1cccc(N(Cc2cccc(OC(F)(F)C(F)F)c2)CC(O)C(F)(F)F)c1 (stereo not drawn) [Example 534] | < 4.30
O=C(Nc1cccc(N(Cc2cccc(OC(F)(F)C(F)F)c2)CC(O)C(F)(F)F)c1)c1ccc(F)cc1 (stereo not drawn) [Example 535, 4-fluoro-N-[3-[[[3-(1,1,2,2-tetrafluoroethoxy)phenyl]methyl](3,3,3-trifluoro-2-hydroxypropyl)amino]phenyl]benzamide] | < 4.30

Molecules with a higher pIC50, results first:

pIC50 | SMILES
5.74 | CC(=O)c1ccc(Sc2cccc(N(Cc3cccc(OC(F)(F)C(F)F)c3)CC(O)C(F)(F)F)c2)cc1 (stereo not drawn) [Example 478]
5.72 | OC(CN(Cc1cccc(OC(F)(F)C(F)F)c1)c1cccc(SCc2cc(Cl)cs2)c1)C(F)(F)F (stereo not drawn) [Example 480]
5.92 | CC(C)COc1cccc(N(Cc2cccc(OC(F)(F)C(F)F)c2)CC(O)C(F)(F)F)c1 (stereo not drawn) [Example 492]
5.74 | CCC(=O)COc1cccc(N(Cc2cccc(OC(F)(F)C(F)F)c2)CC(O)C(F)(F)F)c1 (stereo not drawn) [Example 493]
5.82 | CC(=O)CCCCOc1cccc(N(Cc2cccc(OC(F)(F)C(F)F)c2)CC(O)C(F)(F)F)c1 (stereo not drawn) [Example 495]
5.92 | COC(=O)CCCCOc1cccc(N(Cc2cccc(OC(F)(F)C(F)F)c2)CC(O)C(F)(F)F)c1 (stereo not drawn) [Example 496]
5.68 | O=C(COc1cccc(N(Cc2cccc(OC(F)(F)C(F)F)c2)CC(O)C(F)(F)F)c1)c1ccccc1 (stereo not drawn) [Example 503]
5.77 | COCCOc1cccc(N(Cc2cccc(OC(F)(F)C(F)F)c2)CC(O)C(F)(F)F)c1 (stereo not drawn) [Example 505]
5.68 | CCCC(Oc1cccc(N(Cc2cccc(OC(F)(F)C(F)F)c2)CC(O)C(F)(F)F)c1)C(=O)OCC (stereo not drawn) [Example 508]
5.68 | CC(C)(C)C(=O)COc1cccc(N(Cc2cccc(OC(F)(F)C(F)F)c2)CC(O)C(F)(F)F)c1 (stereo not drawn) [Example 513]
6.47 | OC(CN(Cc1cccc(OC(F)(F)C(F)F)c1)c1cccc(Cc2cccc(C(F)(F)F)c2)c1)C(F)(F)F (stereo not drawn) [Example 514, 3-[[[3-(1,1,2,2-tetrafluoroethoxy)phenyl]methyl][3-[[(3-trifluoromethyl)-phenyl]methyl]phenyl]amino]-1,1,1-trifluoro-2-propanol]
5.80 | Cc1ccc(Cc2cccc(N(Cc3cccc(OC(F)(F)C(F)F)c3)CC(O)C(F)(F)F)c2)cc1 (stereo not drawn) [Example 517]
6.10 | OC(CN(Cc1cccc(OC(F)(F)C(F)F)c1)c1cccc(Cc2cc(Cl)cc(Cl)c2)c1)C(F)(F)F (stereo not drawn) [Example 518]
6.37 | Cc1cc(Cc2cccc(N(Cc3cccc(OC(F)(F)C(F)F)c3)CC(O)C(F)(F)F)c2)ccc1F (stereo not drawn) [Example 521]
5.85 | Cc1cc(Cc2cccc(N(Cc3cccc(OC(F)(F)C(F)F)c3)CC(O)C(F)(F)F)c2)ccc1Cl (stereo not drawn) [Example 522]
6.11 | Cc1ccc(Cc2cccc(N(Cc3cccc(OC(F)(F)C(F)F)c3)CC(O)C(F)(F)F)c2)cc1C (stereo not drawn) [Example 523]
5.92 | OC(CN(Cc1cccc(OC(F)(F)C(F)F)c1)c1cccc(Cc2ccc(F)c(Cl)c2)c1)C(F)(F)F (stereo not drawn) [Example 524]
6.12 | OC(CN(Cc1cccc(OC(F)(F)C(F)F)c1)c1cccc(Cc2cccc(Cl)c2)c1)C(F)(F)F (stereo not drawn) [Example 525]
5.85 | CSc1ccc(Cc2cccc(N(Cc3cccc(OC(F)(F)C(F)F)c3)CC(O)C(F)(F)F)c2)cc1 (stereo not drawn) [Example 526]
6.24 | COc1cccc(Cc2cccc(N(Cc3cccc(OC(F)(F)C(F)F)c3)CC(O)C(F)(F)F)c2)c1 (stereo not drawn) [Example 527]
